Where only a bound is given, the exact number is not on record here.

T1 sequence (P42345 1360-2549 limits assumed): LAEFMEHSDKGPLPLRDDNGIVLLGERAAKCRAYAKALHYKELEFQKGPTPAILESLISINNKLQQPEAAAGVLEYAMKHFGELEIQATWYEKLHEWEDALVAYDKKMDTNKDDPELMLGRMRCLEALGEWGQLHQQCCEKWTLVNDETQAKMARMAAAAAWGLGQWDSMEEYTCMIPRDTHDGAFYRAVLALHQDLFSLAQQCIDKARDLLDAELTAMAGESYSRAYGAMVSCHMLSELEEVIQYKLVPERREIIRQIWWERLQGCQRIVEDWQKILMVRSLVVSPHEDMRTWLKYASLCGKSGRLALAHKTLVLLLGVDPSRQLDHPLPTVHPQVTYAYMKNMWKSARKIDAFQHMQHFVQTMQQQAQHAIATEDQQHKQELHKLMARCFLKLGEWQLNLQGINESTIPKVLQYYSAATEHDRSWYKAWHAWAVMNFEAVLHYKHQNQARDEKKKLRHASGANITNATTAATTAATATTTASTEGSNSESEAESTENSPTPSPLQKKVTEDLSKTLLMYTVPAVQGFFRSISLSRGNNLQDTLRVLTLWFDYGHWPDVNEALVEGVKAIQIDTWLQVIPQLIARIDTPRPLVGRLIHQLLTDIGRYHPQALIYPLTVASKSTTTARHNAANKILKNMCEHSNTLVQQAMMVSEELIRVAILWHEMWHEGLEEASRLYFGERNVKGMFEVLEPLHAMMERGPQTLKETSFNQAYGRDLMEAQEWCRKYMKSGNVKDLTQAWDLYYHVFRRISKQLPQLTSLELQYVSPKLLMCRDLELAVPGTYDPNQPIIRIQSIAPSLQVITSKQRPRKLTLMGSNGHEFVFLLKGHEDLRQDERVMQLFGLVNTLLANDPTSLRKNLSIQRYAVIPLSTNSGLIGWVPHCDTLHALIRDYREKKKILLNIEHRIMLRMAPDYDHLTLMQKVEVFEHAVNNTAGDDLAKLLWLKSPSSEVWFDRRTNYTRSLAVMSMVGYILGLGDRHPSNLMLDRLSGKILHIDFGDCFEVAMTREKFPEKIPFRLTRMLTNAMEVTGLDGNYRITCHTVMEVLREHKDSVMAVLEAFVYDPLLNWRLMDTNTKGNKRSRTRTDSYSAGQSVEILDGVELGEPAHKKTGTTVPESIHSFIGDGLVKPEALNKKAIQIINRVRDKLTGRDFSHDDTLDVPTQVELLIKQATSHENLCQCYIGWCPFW

The first test has as its target T1, mTORC (Homo sapiens, UniProt P42345).
T1 construct: purchased Invitrogen
In words: mTORC in vitro IC50 (Table 2). It counts as biochemical.
Conditions: not given
As to `CC(C)n1nc(-c2cc3cc(F)ccc3[nH]2)c2c(N)ncnc21` [Compound 3], the IC50 was less than 500 nM.

Compound `CC(C)n1nc(-c2cc3ccccc3[nH]2)c2c(N)ncnc21` [Compound 7] yielded an IC50 of less than 100 nM.

`CC(C)n1nc(-c2cc3c(Cl)cccc3[nH]2)c2c(N)ncnc21` [Compound 9] gave an IC50 of less than 50 nM.

The compound `COc1cccc2cc(-c3nn(C(C)C)c4ncnc(N)c34)[nH]c12` [Compound 10] returned an IC50 of less than 25 nM.

In the case of `Nc1ncnc2c1c(-c1cc3cc(O)ccc3[nH]1)nn2C1CCCC1` [Compound 12], the IC50 is less than 10 nM.

Take `CC(C)n1nc(-c2cc3ccc(O)cc3[nH]2)c2c(N)ncnc21` [Compound 21]: the IC50 was less than 50 nM.

Turning to `CC(C)n1nc(-c2cc3ccc(C(N)=O)cc3[nH]2)c2c(N)ncnc21` [Compound 25], the IC50 is less than 500 nM.

As to `Nc1ncnc2c1c(-c1cc3cc(O)ccc3[nH]1)nn2C1CCCCC1` [Compound 26], the IC50 was less than 10 nM.

As to `Nc1ncnc2c1c(-c1cc3cc(O)ccc3[nH]1)nn2C1CCC1` [Compound 27], the IC50 was less than 25 nM.

`CCOC(=O)Cn1nc(-c2cc3cc(O)ccc3[nH]2)c2c(N)ncnc21` [Compound 28] came in with an IC50 of less than 500 nM.

Take `CC(=O)N1CCC(n2nc(-c3cc4cc(O)ccc4[nH]3)c3c(N)ncnc32)CC1` [Compound 30]: the IC50 is less than 25 nM.

For the compound `Nc1ncnc2c1c(-c1cc3cc(O)ccc3[nH]1)nn2C1CCN(C(=O)C2CC2)CC1` [Compound 31], the IC50 is less than 25 nM.

In turn, `CC(C)n1nc(-c2cc3cc(O)c(Cl)cc3[nH]2)c2c(N)ncnc21` [Compound 32] came in with an IC50 of less than 500 nM.

Compound `Nc1ncnc2c1c(-c1cc3cc(O)ccc3[nH]1)nn2CCN1CCOCC1` [Compound 33] gave an IC50 of less than 500 nM.

`Nc1ncnc2c1c(-c1cc3cccc(O)c3[nH]1)nn2C1CCCC1` [Compound 36] showed an IC50 of less than 10 nM.

Regarding `Nc1ncnc2c1c(-c1cc3cc(O)ccc3[nH]1)nn2Cc1cccnc1` [Compound 38], the IC50 was less than 500 nM.

With `CC(C)n1nc(-c2cc3c(Cl)ccc(O)c3[nH]2)c2c(N)ncnc21` [Compound 39], the IC50 was less than 10 nM.

Compound `COCCn1nc(-c2cc3cc(O)ccc3[nH]2)c2c(N)ncnc21` [Compound 40] had an IC50 of less than 100 nM.

`Nc1ncnc2c1c(-c1cc3cccc(O)c3[nH]1)nn2C1CCN(C(=O)C2CC2)CC1` [Compound 41] displayed an IC50 of less than 10 nM.

`Cc1nccn1CCn1nc(-c2cc3cc(O)ccc3[nH]2)c2c(N)ncnc21` [Compound 44] yielded an IC50 of less than 100 nM.

The compound `Nc1ncnc2c1c(-c1cc3c(Cl)cccc3[nH]1)nn2C1CCOCC1` [Compound 48] came in with an IC50 of less than 50 nM.

Regarding `Nc1ncnc2c1c(-c1cc3cc(O)ccc3[nH]1)nn2C1CC(N2CCOCC2)C1` (stereo not drawn) [Compound 49], the IC50 was less than 10 nM.

Compound `CC(C)n1nc(-c2cc3cccc(Cl)c3[nH]2)c2c(N)ncnc21` [Compound 50] yielded an IC50 of less than 50 nM.

`Nc1ncnc2c1c(-c1cc3cccc(Cl)c3[nH]1)nn2C1CCOCC1` [Compound 51] displayed an IC50 of less than 50 nM.

`CN1CCN(C2CC(n3nc(-c4cc5cc(O)ccc5[nH]4)c4c(N)ncnc43)C2)CC1` (stereo not drawn) [Compound 52]: the IC50 was less than 500 nM.

In turn, `Nc1ncnc2c1c(-c1cc3cc(O)ccc3[nH]1)nn2C1CC(=O)C1` [Compound 53] gave an IC50 of less than 100 nM.

The compound `Nc1ncnc2c1c(-c1cc3cc(O)ccc3[nH]1)nn2C1CC(O)C1` (stereo not drawn) [Compound 54] came in with an IC50 of less than 25 nM.

`CC(C)N1CCC(n2nc(-c3cc4cc(O)ccc4[nH]3)c3c(N)ncnc32)CC1` [Compound 55] had an IC50 of less than 500 nM.

The compound `Nc1ncnc2c1c(-c1cc3cc(O)ccc3[nH]1)nn2C1CCC(N2CCOCC2)CC1` (stereo not drawn) [Compound 57] had an IC50 of less than 25 nM.

`Nc1ncnc2c1c(-c1cc3ccc(O)cc3[nH]1)nn2C1CCOCC1` [Compound 60] gave an IC50 of less than 100 nM.

`COc1ccc(Cl)c2cc(-c3nn(C4CCOCC4)c4ncnc(N)c34)[nH]c12` [Compound 61] showed an IC50 of less than 25 nM.

Compound `CC(C)N1CCC(n2nc(-c3cc4cccc(O)c4[nH]3)c3c(N)ncnc32)CC1` [Compound 64] yielded an IC50 of less than 25 nM.

As for `CC(=O)N1CCC(n2nc(-c3cc4ccc(O)cc4[nH]3)c3c(N)ncnc32)CC1` [Compound 65], the IC50 was less than 10 nM.

Compound `CC(C)N1CCC(n2nc(-c3cc4c(Cl)ccc(O)c4[nH]3)c3c(N)ncnc32)CC1` [Compound 71] returned an IC50 of less than 100 nM.

Another test relates to A498 xenografts. In words: Tumor hypoxia by pimonidazole staining in A498 xenografts. The class given is in vivo, Mice. Conditions: 6 cycles, doses and schedules of Table 5 (Compound A 1 mg/kg PO QD or 3QW; Sorafenib 40 mg/kg IP 4QW; alternating 3QW/4QW), tumor 2 hr after dosing. As to the method: Mice bearing A498 xenografts were treated as shown below in Table 5 for 6 weeks or cycles (each cycle consisting of 7 days). During cycle 6, mice were sacrificed 2 hours after dosing. Pimonidazole hydrochloride, which binds to proteins in hypoxia conditions, was injected intraperitoneally 60 minutes before the tumor was harvested. Tumors were collected either at 2 hr of vehicle (Groups A, C, and D), Compound A (Groups B, C, and E) or sorafenib (Group D) dosing. Tumor tissues were formalin fixed and paraffin embedded. Tissue sections were stained with anti-pimonidazole antibody and visualized with DAB (dark brown).
Turning to `CNC(=O)c1cc(Oc2ccc(NC(=O)Nc3ccc(Cl)c(C(F)(F)F)c3)cc2)ccn1` [Sorafenib, sorafenib], the “tumor hypoxia (anti-pimonidazole staining)” value is “caused necrosis and cells surrounding the necrosis area appear pimonidazole positive”.

The same test, now with this note: intermittent dosing (Table 5), off phase of the cycle.
As for `CNC(=O)c1cc(Oc2ccc(NC(=O)Nc3ccc(Cl)c(C(F)(F)F)c3)cc2)ccn1` [Sorafenib, sorafenib], the “tumor hypoxia (anti-pimonidazole staining), off phase” value is recorded as “pimonidazole staining intensity was reduced”.

In another test the test system is PC3. The experiment in a line: PC3 tumor cell line proliferation assay. The class given is cell-based. The conditions noted are these: Homo sapiens, PC-3; Table 1; read-out: PC3 IC50.
Procedure: The assay is performed in a 96 well microtiter plate using Alamar Blue reduction. […] A compound disclosed herein is diluted in Tumor Cell Media and added in a 10 ul volume. […] A volume of 10 uL of Alamar Blue reagent is added to each well and plates are incubated for 3 hours at 37 C and 5% CO2.
Turning to `CC(=O)Nc1nc2cc(-c3nn(C(C)C)c4ncnc(N)c34)ccc2o1` [Compound 2], the IC50 was less than 1000 nM.

In the case of `CC(C)n1nc(-c2ccc3nc(N)oc3c2)c2c(N)ncnc21` [Compound 4], the IC50 was less than 10000 nM.

`Nc1nc2cc(-c3nn(C4CCOCC4)c4ncnc(N)c34)ccc2o1` [Compound 5]: the IC50 is less than 100 nM.

For `Nc1nc2cc(-c3nn(C4CCC(N5CCOCC5)CC4)c4ncnc(N)c34)ccc2o1` (stereo not drawn) [Compound 6], the IC50 was less than 1000 nM.

For the compound `CC(=O)N1CCC(n2nc(-c3ccc4oc(N)nc4c3)c3c(N)ncnc32)CC1` [Compound 7], the IC50 is less than 10000 nM.

As for `CC(C)n1cc(-c2ccc3oc(N)nc3c2)c2c(N)ncnc21` [Compound 8], the IC50 was less than 100 nM.

Turning to `Nc1nc2cc(-c3cn(C4CCOCC4)c4ncnc(N)c34)ccc2o1` [Compound 9], the IC50 was less than 100 nM.

With `CC(C)n1nc(-c2ccc3onc(N)c3c2)c2c(N)ncnc21` [Compound 10], the IC50 was greater than 10000 nM.

Consider `CC(=O)Nc1noc2cc(-c3nn(C(C)C)c4ncnc(N)c34)ccc12` [Compound 11], for which the IC50 is greater than 10000 nM.

For the compound `CC(C)n1nc(-c2ccc3c(N)noc3c2)c2c(N)ncnc21` [Compound 12], the IC50 is greater than 10000 nM.

Staying with this test, now noted: Homo sapiens, PC-3; Table 2; read-out: PC3 proliferation.
In the case of `CC(C)n1nc(-c2cc3ccc(C#N)cc3[nH]2)c2c(N)ncnc21` [Compound 24], the IC50 is greater than 500 nM.

`CC(C)n1nc(-c2cc3ccc(C(N)=O)cc3[nH]2)c2c(N)ncnc21` [Compound 25]: the IC50 is greater than 500 nM.
